Measured values as given in ChEMBL document CHEMBL3826915, “Design and comparative anticonvulsant activity assessment of CNS-active alkyl-carbamoyl imidazole derivatives” (Bioorg Med Chem, 2016).
Active and inactive are the calls of the source. No cut-off for these calls is given here.

What was measured:
[1] = tested on: Rattus norvegicus; assay: Anticonvulsant activity in albino Sprague-Dawley rat assessed as protection against maximal electroshock-induced seizures at 30 mg/kg, po after 2 hrs; type: functional, organism-based
[2] = tested on: Rattus norvegicus; assay: Neurotoxicity in albino Sprague-Dawley rat assessed as behavioral impairment at 30 mg/kg, po after 1 hr by rotorod test; type: toxicity, organism-based; settings: in vivo
[3] = tested on: Rattus norvegicus; assay: Anticonvulsant activity in ip dosed albino Sprague-Dawley rat assessed as protection against maximal electroshock-induced seizures by measuring time to peak effect; type: functional
[4] = tested on: Rattus norvegicus; assay: Anticonvulsant activity in ip dosed albino Sprague-Dawley rat assessed as protection against maximal electroshock-induced seizures; type: functional
[5] = tested on: Rattus norvegicus; assay: Anticonvulsant activity in ip dosed albino Sprague-Dawley rat assessed as protection against subcutaneous metrazol-induced seizures by measuring time to peak effect; type: functional
[6] = tested on: Rattus norvegicus; assay: Neurotoxicity in albino Sprague-Dawley rat assessed as behavioral impairment at 30 mg/kg, ip after 0.5 hrs by rotorod test; type: toxicity, organism-based; settings: in vivo
[7] = Protective index, ratio of TD50 for neurotoxicity in ip dosed albino Sprague-Dawley rat to ED50 for anticonvulsant activity in ip dosed maximal electroshock-induced seizure albino Sprague-Dawley rat model; type: toxicity, organism-based; settings: in vivo, read-out: Ratio TD50/ED50
[8] = tested on: Mus musculus; assay: Anticonvulsant activity in albino CF1 mouse assessed as protection against 32 mA current-induced seizure at 300 mg/kg, ip after 0.5 hrs by 6 Hz psychomotor test; type: functional, organism-based
[9] = tested on: Rattus norvegicus; assay: Neurotoxicity in albino Sprague-Dawley rat assessed as behavioral impairment at 30 mg/kg, ip after 1 hr by rotorod test; type: toxicity, organism-based; settings: in vivo
[10] = tested on: Mus musculus; assay: Anticonvulsant activity in ip dosed albino CF1 mouse assessed as protection against subcutaneous metrazol-induced seizures; type: functional
[11] = tested on: Mus musculus; assay: Neurotoxicity in albino CF1 mouse assessed as behavioral impairment at 30 mg/kg, ip after 0.5 hrs by rotorod test; type: toxicity, organism-based; settings: in vivo
[12] = tested on: Mus musculus; assay: Anticonvulsant activity in albino CF1 mouse assessed as protection against 32 mA current-induced seizure at 100 mg/kg, ip after 2 hrs by 6 Hz psychomotor test; type: functional, organism-based
[13] = tested on: Mus musculus; assay: Neurotoxicity in albino CF1 mouse assessed as behavioral impairment at 300 mg/kg, ip after 0.5 hrs by rotorod test; type: toxicity, organism-based; settings: in vivo
[14] = tested on: Rattus norvegicus; assay: Anticonvulsant activity in albino Sprague-Dawley rat assessed as protection against maximal electroshock-induced seizures at 30 mg/kg, po after 0.5 hrs; type: functional, organism-based
[15] = tested on: Mus musculus; assay: Anticonvulsant activity in ip dosed albino CF1 mouse assessed as protection against maximal electroshock-induced seizures by measuring time to peak effect; type: functional
[16] = tested on: Mus musculus; assay: Neurotoxicity in albino CF1 mouse assessed as behavioral impairment at 30 mg/kg, ip after 2 hrs by rotorod test; type: toxicity, organism-based; settings: in vivo
[17] = Protective index, ratio of TD50 for neurotoxicity in ip dosed albino Sprague-Dawley rat to ED50 for anticonvulsant activity in ip dosed subcutaneous metrazol-induced seizure albino Sprague-Dawley rat model; type: toxicity, organism-based; settings: in vivo, read-out: Ratio TD50/ED50
[18] = tested on: Mus musculus; assay: Anticonvulsant activity in albino CF1 mouse assessed as protection against 32 mA current-induced seizure at 100 mg/kg, ip after 0.5 hrs by 6 Hz psychomotor test; type: functional, organism-based
[19] = tested on: Mus musculus; assay: Anticonvulsant activity in ip dosed albino CF1 mouse assessed as protection against maximal electroshock-induced seizures; type: functional
[20] = Protective index, ratio of TD50 for neurotoxicity in ip dosed albino CF1 mouse to ED50 for anticonvulsant activity in ip dosed […] metrazol-induced seizure albino CF1 mouse model; type: toxicity, organism-based; settings: in vivo, read-out: Ratio TD50/ED50
[21] = tested on: Mus musculus; assay: Anticonvulsant activity in albino CF1 mouse assessed as protection against maximal electroshock-induced seizures at 30 mg/kg, ip after 2 hrs; type: functional, organism-based
[22] = tested on: Mus musculus; assay: Anticonvulsant activity in albino CF1 mouse assessed as protection against 32 mA current-induced seizure at 30 mg/kg, ip after 2 hrs by 6 Hz psychomotor test; type: functional, organism-based
[23] = Protective index, ratio of TD50 for neurotoxicity in ip dosed albino CF1 mouse to ED50 for anticonvulsant activity in ip dosed 6 Hz current-induced seizure albino CF1 mouse model; settings: in vivo
[24] = tested on: Rattus norvegicus; assay: Neurotoxicity in albino Sprague-Dawley rat assessed as behavioral impairment at 30 mg/kg, po after 0.25 hrs by rotorod test; type: toxicity, organism-based; settings: in vivo
[25] = Protective index, ratio of TD50 for neurotoxicity in ip dosed albino CF1 mouse to ED50 for anticonvulsant activity in ip dosed maximal electroshock-induced seizure albino CF1 mouse model; type: toxicity, organism-based; settings: in vivo, read-out: Ratio TD50/ED50
[26] = Neurotoxicity in ip dosed albino CF1 mouse assessed as motor impairment by rotorod test; type: toxicity, organism-based; settings: in vivo
[27] = tested on: Mus musculus; assay: Anticonvulsant activity in albino CF1 mouse assessed as protection against maximal electroshock-induced seizures at 300 mg/kg, ip after 0.5 hrs; type: functional, organism-based
[28] = tested on: Mus musculus; assay: Anticonvulsant activity in ip dosed albino CF1 mouse assessed as protection against 6 Hz current-induced seizures by psychomotor test; type: functional
[29] = tested on: Rattus norvegicus; assay: Anticonvulsant activity in albino Sprague-Dawley rat assessed as protection against maximal electroshock-induced seizures at 30 mg/kg, ip after 0.5 hrs; type: functional, organism-based
[30] = tested on: Rattus norvegicus; assay: Neurotoxicity in albino Sprague-Dawley rat assessed as behavioral impairment at 30 mg/kg, po after 2 hrs by rotorod test; type: toxicity, organism-based; settings: in vivo
[31] = tested on: Rattus norvegicus; assay: Anticonvulsant activity in albino Sprague-Dawley rat assessed as protection against maximal electroshock-induced seizures at 30 mg/kg, ip after 0.25 hrs; type: functional, organism-based
[32] = tested on: Rattus norvegicus; assay: Anticonvulsant activity in ip dosed albino Sprague-Dawley rat assessed as protection against subcutaneous metrazol-induced seizures; type: functional
[33] = tested on: Mus musculus; assay: Anticonvulsant activity in albino CF1 mouse assessed as protection against 32 mA current-induced seizure at 30 mg/kg, ip after 0.5 hrs by 6 Hz psychomotor test; type: functional, organism-based
[34] = tested on: Rattus norvegicus; assay: Anticonvulsant activity in albino Sprague-Dawley rat assessed as protection against maximal electroshock-induced seizures at 30 mg/kg, ip after 2 hrs; type: functional, organism-based
[35] = tested on: Mus musculus; assay: Anticonvulsant activity in ip dosed albino CF1 mouse assessed as protection against subcutaneous metrazol-induced seizures by measuring time to peak effect; type: functional
[36] = tested on: Mus musculus; assay: Anticonvulsant activity in albino CF1 mouse assessed as protection against maximal electroshock-induced seizures at 100 mg/kg, ip after 0.5 hrs; type: functional, organism-based
[37] = tested on: Rattus norvegicus; assay: Neurotoxicity in albino Sprague-Dawley rat assessed as behavioral impairment at 30 mg/kg, ip after 2 hrs by rotorod test; type: toxicity, organism-based; settings: in vivo
[38] = tested on: Mus musculus; assay: Neurotoxicity in albino CF1 mouse assessed as behavioral impairment at 300 mg/kg, ip after 2 hrs by rotorod test; type: toxicity, organism-based; settings: in vivo
[39] = tested on: Rattus norvegicus; assay: Neurotoxicity in albino Sprague-Dawley rat assessed as behavioral impairment at 30 mg/kg, ip after 0.25 hrs by rotorod test; type: toxicity, organism-based; settings: in vivo
[40] = Neurotoxicity in ip dosed albino Sprague-Dawley rat assessed as motor impairment by rotorod test; type: toxicity, organism-based; settings: in vivo
[41] = tested on: Mus musculus; assay: Anticonvulsant activity in ip dosed albino CF1 mouse assessed as protection against 6 Hz current-induced seizure by measuring time to peak effect; type: functional
[42] = tested on: Mus musculus; assay: Neurotoxicity in albino CF1 mouse assessed as behavioral impairment at 50 mg/kg, ip after 0.25 hrs by rotorod test; type: toxicity, organism-based; settings: in vivo
[43] = tested on: Mus musculus; assay: Anticonvulsant activity in albino CF1 mouse assessed as protection against 44 mA current-induced seizure at 50 mg/kg, ip after 0.25 hrs by 6 Hz psychomotor test; type: functional, organism-based
[44] = tested on: Mus musculus; assay: Neurotoxicity in albino CF1 mouse assessed as behavioral impairment at 50 mg/kg, ip after 1 hr by rotorod test; type: toxicity, organism-based; settings: in vivo
[45] = tested on: Mus musculus; assay: Anticonvulsant activity in albino CF1 mouse assessed as protection against 32 mA current-induced seizure at 300 mg/kg, ip after 2 hrs by 6 Hz psychomotor test; type: functional, organism-based
[46] = tested on: Rattus norvegicus; assay: Anticonvulsant activity in albino Sprague-Dawley rat assessed as protection against maximal electroshock-induced seizures at 30 mg/kg, po after 1 hr; type: functional, organism-based
[47] = tested on: Rattus norvegicus; assay: Neurotoxicity in albino Sprague-Dawley rat assessed as behavioral impairment at 30 mg/kg, po after 0.5 hrs by rotorod test; type: toxicity, organism-based; settings: in vivo
[48] = tested on: Mus musculus; assay: Neurotoxicity in albino CF1 mouse assessed as behavioral impairment at 50 mg/kg, ip after 2 hrs by rotorod test; type: toxicity, organism-based; settings: in vivo
[49] = tested on: Rattus norvegicus; assay: Anticonvulsant activity in albino Sprague-Dawley rat assessed as protection against maximal electroshock-induced seizures at 30 mg/kg, ip after 1 hr; type: functional, organism-based
[50] = tested on: Mus musculus; assay: Anticonvulsant activity in albino CF1 mouse assessed as protection against maximal electroshock-induced seizures at 100 mg/kg, ip after 2 hrs; type: functional, organism-based
[51] = tested on: Mus musculus; assay: Neurotoxicity in albino CF1 mouse assessed as behavioral impairment at 100 mg/kg, ip after 2 hrs by rotorod test; type: toxicity, organism-based; settings: in vivo
[52] = tested on: Mus musculus; assay: Neurotoxicity in albino CF1 mouse assessed as behavioral impairment at 100 mg/kg, ip after 1 hr by rotorod test; type: toxicity, organism-based; settings: in vivo
[53] = tested on: Mus musculus; assay: Neurotoxicity in albino CF1 mouse assessed as behavioral impairment at 100 mg/kg, ip after 0.25 hrs by rotorod test; type: toxicity, organism-based; settings: in vivo
[54] = tested on: Mus musculus; assay: Anticonvulsant activity in albino CF1 mouse assessed as protection against maximal electroshock-induced seizures at 30 mg/kg, ip after 0.5 hrs; type: functional, organism-based
[55] = tested on: Mus musculus; assay: Anticonvulsant activity in albino CF1 mouse assessed as protection against 44 mA current-induced seizure at 100 mg/kg, ip after 0.25 hrs by 6 Hz psychomotor test; type: functional, organism-based

CCCC(CCC)COC(=O)NCCCn1ccnc1
Activity [1]: inactive | Activity [2]: Non-toxic | Time [3]: 0.25 h | ED50 [4]: 12 mg/kg | Time [5]: 0.25 h | Activity [6]: Non-toxic | selectivity ratio [7]: 7.3 | Activity [8]: Active | Activity [9]: Non-toxic | ED50 [10]: > 70 mg/kg | Activity [11]: Non-toxic | Activity [12]: Active | Activity [13]: Toxic | Activity [14]: inactive | Time [15]: 0.5 h | Activity [16]: Non-toxic | selectivity ratio [17]: 1 | Activity [18]: Active | ED50 [19]: 18 mg/kg | selectivity ratio [20]: 0.9 | Activity [21]: inactive | Activity [22]: inactive | selectivity ratio [23]: 2 | Activity [24]: Non-toxic | selectivity ratio [25]: 3.3 | TD50 [26]: 65 mg/kg | Activity [27]: Active | ED50 [28]: 32 mg/kg | Activity [29]: Active | Activity [30]: Non-toxic | Activity [31]: Active | ED50 [32]: > 88 mg/kg | Activity [33]: inactive | Activity [34]: inactive | Time [35]: 0.5 h | Activity [36]: Active | Activity [37]: Non-toxic | Activity [38]: Toxic | Activity [39]: Non-toxic | TD50 [40]: 87 mg/kg | Time [41]: 0.5 h | Activity [42]: Non-toxic | Activity [43]: inactive | Activity [44]: Non-toxic | Activity [45]: Active | Activity [46]: inactive | Activity [47]: Non-toxic | Activity [48]: Non-toxic

CCCC(CC)OC(=O)NCCCn1ccnc1 (stereo not drawn)
Activity [49]: Active | Activity [1]: inactive | Activity [2]: Non-toxic | Time [3]: 0.25 h | ED50 [4]: 17 mg/kg | Time [5]: 0.25 h | Activity [6]: Non-toxic | selectivity ratio [7]: 5.4 | Activity [8]: Active | Activity [9]: Non-toxic | ED50 [10]: > 50 mg/kg | Activity [50]: Active | Activity [11]: Non-toxic | Activity [13]: Toxic | Activity [14]: inactive | Time [15]: 0.5 h | Activity [16]: Non-toxic | selectivity ratio [17]: 1 | ED50 [19]: 28 mg/kg | selectivity ratio [20]: 1.7 | Activity [51]: Non-toxic | Activity [22]: inactive | selectivity ratio [23]: 0.64 | Activity [24]: Non-toxic | selectivity ratio [25]: 3.1 | TD50 [26]: 86 mg/kg | Activity [52]: Non-toxic | ED50 [28]: 135 mg/kg | Activity [29]: Active | Activity [30]: Non-toxic | Activity [31]: Active | Activity [53]: Toxic | ED50 [32]: > 92 mg/kg | Activity [34]: Active | Time [35]: 0.5 h | Activity [36]: Active | Activity [54]: Active | Activity [37]: Non-toxic | Activity [38]: Toxic | Activity [39]: Non-toxic | TD50 [40]: 92 mg/kg | Activity [55]: Active | Time [41]: 0.5 h | Activity [46]: inactive | Activity [47]: Non-toxic
